In patent US12514908B2 (MAPI PHARMA LTD., priority 2021, dated 2026):
“And” between values parts separate entries of the source, which are not always exact repeats. Identical values can stand only once.

Tests used:
db/db mice = experiment: Example 4 death of an animal in db/db mice (Table 10B); type: in vivo; details: 0.4 mg/kg, SC, Daily, animal No. 3, after Day 7 (3 h), before Day 14
in vivo = details: male, db/db, mouse, plasma, sc
[1] = Example 6 semaglutide plasma levels in db/db mice; type: in vivo; details: 0.02 mg/kg/day SC daily
Method: Naïve control, n=5 • 2. Vehicle (db/db mice) SC administered daily (dose-(vehicle) 1 ml/kg/day, for 42 days), n=10 • 3.
Body weight and food consumption were monitored daily. Ad-lib fed blood glucose levels were measured every third day. Fasted blood glucose levels were measured on Day-14, Day-28 and Day-42. Glycated hemoglobin (hbA1c) levels were measured on Day-0, Day-28, and Day-42.

[2] = Example 4 semaglutide plasma concentrations in db/db mice; details: for Plasma concentrations, individual animals: SC, Daily, listed as Semaglutide API
[3] = Example 5 plasma concentrations and pharmacokinetic parameters in male Gottingen minipigs; type: in vivo
Method: […] At each time point, ˜2.0 ml of blood was withdrawn and transferred into a prelabeled K2EDTA coated vacutainers and mixed gently by inverting the tube to facilitate mixing of anticoagulant with the blood. Blood samples were kept on gel packs until centrifugation. The collected blood samples were centrifuged at 4,000 rpm for 10 min at 4° C. Plasma was separated after centrifugation. All plasma samples were transferred into pre-labeled (Animal ID No., Time point, Study No., and Group) tubes and stored at −70±10° C. until analysis. Blood glucose levels were determined for all blood collection time points.
Bioanalysis was performed using fit-for-purpose liquid chromatography mass spectrometry (LC-MS/MS) method for the quantification of semaglutide in plasma samples. Linearity range was 1 to 204 ng/ml. Semaglutide were extracted from mini pigs plasma samples using solid phase extraction technique and quantified using LC-MS/MS with Electro Spray Ionization (ESI) and multiple reaction monitoring (MRM) in positive ionization mode.

For CC[C@H](C)[C@H](NC(=O)[C@H](Cc1ccccc1)NC(=O)[C@H](CCC(=O)O)NC(=O)[C@H](CCCCNC(=O)COCCOCCNC(=O)COCCOCCNC(=O)CC[C@H](NC(=O)CCCCCCCCCCCCCCCCC(=O)O)C(=O)O)NC(=O)[C@H](C)NC(=O)[C@H](C)NC(=O)[C@H](CCC(N)=O)NC(=O)CNC(=O)[C@H](CCC(=O)O)NC(=O)[C@H](CC(C)C)NC(=O)[C@H](Cc1ccc(O)cc1)NC(=O)[C@H](CO)NC(=O)[C@H](CO)NC(=O)[C@@H](NC(=O)[C@H](CC(=O)O)NC(=O)[C@H](CO)NC(=O)[C@@H](NC(=O)[C@H](Cc1ccccc1)NC(=O)[C@@H](NC(=O)CNC(=O)[C@H](CCC(=O)O)NC(=O)C(C)(C)NC(=O)[C@@H](N)Cc1cnc[nH]1)[C@@H](C)O)[C@@H](C)O)C(C)C)C(=O)N[C@@H](C)C(=O)N[C@@H](Cc1c[nH]c2ccccc12)C(=O)N[C@@H](CC(C)C)C(=O)N[C@H](C(=O)N[C@@H](CCCNC(=N)N)C(=O)NCC(=O)N[C@@H](CCCNC(=N)N)C(=O)NCC(=O)O)C(C)C [semaglutide, [Aib8, Lys26 (γGlu-2xOEG-C18 acid), Arg34]-hGLP-1-(7-37)-OH], the “Mortality (animal died)” value (db/db mice) was “Animal died”, the level at 24 h (in vivo; 0.06 mg/kg/day) was 100 to 500 ng/mL and the level at 24 h (in vivo; 0.4 mg/kg/day) was 500 to 4500 ng/mL. The “course of plasma levels” value [1] was “fluctuations with increase in plasma levels 3 h post injections”, the “Plasma concentrations, individual animals” value ([2]; 0.06 mg/kg, Day 1 (3 h), 0.06 mg/kg) was 230 ng/mL and the “Plasma concentrations, individual animals” value ([2]; 0.06 mg/kg, Day 7 (0 h), 0.06 mg/kg) was 206 ng/mL. For the same molecule, the “Plasma concentrations, individual animals” value ([2]; 0.06 mg/kg, Day 7 (3 h), 0.06 mg/kg) was 855 ng/mL, the “Plasma concentrations, individual animals” value ([2]; 0.06 mg/kg, Day 21 (0 h), 0.06 mg/kg) was 171 ng/mL and 269 ng/mL and the “Plasma concentrations, individual animals” value ([2]; 0.06 mg/kg, Day 21 (3 h), 0.06 mg/kg) was 867 ng/mL. For the same molecule, the “Plasma concentrations, individual animals” value ([2]; 0.06 mg/kg, Day 28 (0 h), 0.06 mg/kg) was 320 ng/mL and 257 ng/mL, the “Plasma concentrations, individual animals” value ([2]; 0.06 mg/kg, Day 28 (3 h), 0.06 mg/kg) was 474 ng/mL and 406 ng/mL and the “plasma levels at 3 hrs post injection” value ([2]; 0.06 mg/kg/day SC daily) was “increase in plasma levels”. The “Plasma concentrations, individual animals” value ([2]; 0.4 mg/kg, Day 1 (3 h), 0.4 mg/kg) was 1310 ng/mL, the “Plasma concentrations, individual animals” value ([2]; 0.4 mg/kg, Day 14 (3 h), 0.4 mg/kg) was 6500 ng/mL and the “Plasma concentrations, individual animals” value ([2]; 0.4 mg/kg, Day 21 (0 h), 0.4 mg/kg) was 2550 ng/mL. The “Plasma concentrations, individual animals” value ([2]; 0.4 mg/kg, Day 28 (0 h), 0.4 mg/kg) was 2880 ng/mL and 1460 ng/mL, the “Plasma concentrations, individual animals” value ([2]; 0.4 mg/kg, Day 28 (3 h), 0.4 mg/kg) was 6690 ng/mL and the “plasma levels 3 hrs post injection” value ([2]; 0.4 mg/kg/day SC daily) was “increase in plasma levels”. For the same molecule, the “dose dependence of the increase in plasma levels” value ([2]; between 0.06 and 0.4 mg/kg daily doses) was “dose proportional”, the “Mean plasma concentrations of semaglutide” value ([3]; Group 2, repeated SC 0.008 mg/kg every 3 days until Day 28, n=3, 0 h) was 0 ng/mL and the level at 6 h ([3]; minipig, plasma, Group 2, repeated SC 0.008 mg/kg every 3 days until Day 28, n=3, 6 h) was 9.64 ng/mL. The level at 12 h ([3]; minipig, plasma, Group 2, repeated SC 0.008 mg/kg every 3 days until Day 28, n=3, 12 h) was 10.2 ng/mL, the level at 24 h ([3]; minipig, plasma, Group 2, repeated SC 0.008 mg/kg every 3 days until Day 28, n=3, 24 h) was 11 ng/mL and the level at 48 h ([3]; minipig, plasma, Group 2, repeated SC 0.008 mg/kg every 3 days until Day 28, n=3, 48 h) was 9.67 ng/mL. For the same molecule, the level at 72 h ([3]; minipig, plasma, Group 2, repeated SC 0.008 mg/kg every 3 days until Day 28, n=3, 72 h) was 9.43 ng/mL, the level at 84 h ([3]; minipig, plasma, Group 2, repeated SC 0.008 mg/kg every 3 days until Day 28, n=3, 84 h) was 17.7 ng/mL and the level at 144 h ([3]; minipig, plasma, Group 2, repeated SC 0.008 mg/kg every 3 days until Day 28, n=3, 144 h) was 13.1 ng/mL. It also gave a level at 156 h ([3]; minipig, plasma, Group 2, repeated SC 0.008 mg/kg every 3 days until Day 28, n=3, 156 h) of 35 ng/mL, a level at 216 h ([3]; minipig, plasma, Group 2, repeated SC 0.008 mg/kg every 3 days until Day 28, n=3, 216 h) of 27.3 ng/mL and a level at 228 h ([3]; minipig, plasma, Group 2, repeated SC 0.008 mg/kg every 3 days until Day 28, n=3, 228 h) of 31.3 ng/mL. The level at 288 h ([3]; minipig, plasma, Group 2, repeated SC 0.008 mg/kg every 3 days until Day 28, n=3, 288 h) was 23 ng/mL, the level at 300 h ([3]; minipig, plasma, Group 2, repeated SC 0.008 mg/kg every 3 days until Day 28, n=3, 300 h) was 21.3 ng/mL and the level at 360 h ([3]; minipig, plasma, Group 2, repeated SC 0.008 mg/kg every 3 days until Day 28, n=3, 360 h) was 34 ng/mL. The level at 504 h ([3]; minipig, plasma, Group 2, repeated SC 0.008 mg/kg every 3 days until Day 28, n=3, 504 h (For G2)) was 27.3 ng/mL, the level at 648 h ([3]; minipig, plasma, Group 2, repeated SC 0.008 mg/kg every 3 days until Day 28, n=3, 648 h (For G2)) was 23.4 ng/mL and the level at 720 h ([3]; minipig, plasma, Group 2, repeated SC 0.008 mg/kg every 3 days until Day 28, n=3, 720 h (Day 30)) was 27 ng/mL.
